Experimental data taken from BindingDB's records for PubMed 36812150 (China Pharmaceutical University, 2023).

Molecular target: Sucrase-isomaltase, intestinal (Rattus norvegicus, UniProt P23739)
Test: Binding affinity to sucrase in rat small intestinal brush border membrane vesicles assessed as inhibition constant using sucrose as substrate incubated for 30 mins by glucose-oxidase method

Sucrase-isomaltase, intestinal, sequence (P23739 1-1013 limits assumed): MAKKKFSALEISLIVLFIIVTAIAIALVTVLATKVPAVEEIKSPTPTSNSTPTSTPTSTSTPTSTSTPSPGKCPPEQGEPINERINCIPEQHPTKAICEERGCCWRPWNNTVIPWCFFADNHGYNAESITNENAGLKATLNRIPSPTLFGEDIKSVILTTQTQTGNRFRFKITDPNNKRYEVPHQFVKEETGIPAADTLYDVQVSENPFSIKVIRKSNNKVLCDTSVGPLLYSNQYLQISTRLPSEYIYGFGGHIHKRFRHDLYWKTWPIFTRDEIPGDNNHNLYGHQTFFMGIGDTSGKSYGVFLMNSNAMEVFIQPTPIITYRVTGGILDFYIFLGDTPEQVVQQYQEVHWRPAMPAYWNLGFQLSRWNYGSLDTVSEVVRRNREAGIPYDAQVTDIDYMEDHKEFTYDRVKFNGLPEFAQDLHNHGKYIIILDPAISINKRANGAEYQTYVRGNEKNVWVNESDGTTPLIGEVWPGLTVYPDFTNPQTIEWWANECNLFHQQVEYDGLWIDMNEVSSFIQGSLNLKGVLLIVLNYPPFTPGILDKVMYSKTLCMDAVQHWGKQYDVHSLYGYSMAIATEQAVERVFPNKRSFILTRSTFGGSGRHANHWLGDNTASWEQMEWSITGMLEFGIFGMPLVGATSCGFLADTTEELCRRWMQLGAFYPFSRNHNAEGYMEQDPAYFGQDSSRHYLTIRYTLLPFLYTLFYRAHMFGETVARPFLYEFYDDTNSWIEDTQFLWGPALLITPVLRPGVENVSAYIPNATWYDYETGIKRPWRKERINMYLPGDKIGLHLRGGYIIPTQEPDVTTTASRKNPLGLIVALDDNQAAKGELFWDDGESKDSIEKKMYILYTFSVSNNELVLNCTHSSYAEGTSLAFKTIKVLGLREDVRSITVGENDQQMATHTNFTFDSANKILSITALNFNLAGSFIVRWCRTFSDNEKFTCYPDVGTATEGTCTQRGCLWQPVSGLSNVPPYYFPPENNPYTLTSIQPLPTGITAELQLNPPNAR
Sucrase-isomaltase, intestinal, sequence (P23739 1014-1841 limits assumed): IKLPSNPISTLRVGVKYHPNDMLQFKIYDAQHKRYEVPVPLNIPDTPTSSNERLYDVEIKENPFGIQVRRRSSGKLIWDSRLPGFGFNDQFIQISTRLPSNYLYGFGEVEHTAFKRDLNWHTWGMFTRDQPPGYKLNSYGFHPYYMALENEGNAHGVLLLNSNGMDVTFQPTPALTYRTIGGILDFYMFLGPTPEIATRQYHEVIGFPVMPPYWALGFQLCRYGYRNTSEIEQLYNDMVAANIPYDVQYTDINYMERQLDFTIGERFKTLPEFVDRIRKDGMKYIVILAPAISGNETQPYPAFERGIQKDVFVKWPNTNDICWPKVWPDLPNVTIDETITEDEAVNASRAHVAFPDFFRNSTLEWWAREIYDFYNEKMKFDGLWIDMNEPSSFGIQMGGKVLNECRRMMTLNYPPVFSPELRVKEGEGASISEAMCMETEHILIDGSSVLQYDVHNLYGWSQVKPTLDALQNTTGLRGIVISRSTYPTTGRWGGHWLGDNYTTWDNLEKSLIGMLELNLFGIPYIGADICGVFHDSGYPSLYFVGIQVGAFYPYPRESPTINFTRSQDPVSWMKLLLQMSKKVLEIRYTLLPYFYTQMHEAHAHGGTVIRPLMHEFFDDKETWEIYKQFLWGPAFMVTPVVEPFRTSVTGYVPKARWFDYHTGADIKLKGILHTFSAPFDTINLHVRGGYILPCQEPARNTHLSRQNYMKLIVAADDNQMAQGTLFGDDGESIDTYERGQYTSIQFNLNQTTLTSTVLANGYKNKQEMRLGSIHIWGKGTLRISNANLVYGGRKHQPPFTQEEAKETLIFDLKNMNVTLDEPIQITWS

Compound | Ki [nM]
OC[C@@H]1[C@@H](O)[C@H](O)C[S@+]1C[C@@H](O)[C@H]1OC(c2ccccc2)OC[C@H]1O (stereo not given in full) | 310
O=[N+]([O-])c1ccccc1C1OC[C@@H](O)[C@@H]([C@H](O)C[S@@+]2C[C@@H](O)[C@H](O)[C@H]2CO)O1 (stereo not given in full) | 160

The next lines start with the values.

Ki [nM] | Compound
190 | OC[C@@H]1[C@@H](O)[C@H](O)C[S@+]1C[C@@H](O)[C@H]1OC(c2ccccc2C(F)(F)F)OC[C@H]1O (stereo not given in full)
210 | OC[C@@H]1[C@@H](O)[C@H](O)C[S@+]1C[C@@H](O)[C@H]1OC(c2ccccc2Cl)OC[C@H]1O (stereo not given in full)
240 | OC[C@@H]1[C@@H](O)[C@H](O)C[S@+]1C[C@@H](O)[C@H]1OC(c2ccccc2F)OC[C@H]1O (stereo not given in full)
